Results published in ChEMBL document CHEMBL1201862, “PubChem BioAssay data set” (2004).
Activity calls are given as the source filed them.

How the values were obtained:
[1] = A549 cell cytotoxicity, dose response, cytotoxicity control, plate reader, cherry-pick, antagonist series (AID 743412); assay type: functional, cell-based
[2] = toxicity toward HepG2 liver cells – cell-based, plate reader, cherry-pick, antagonist series, cytotoxicity control, dose response (AID 743416); assay type: functional
[3] = blockers of bursicon-stimulated LGR2 cAMP reporter – cell-based, HEK293, CRE-luciferase reporter, cherry pick, set 2, dose response (AID 743343); assay type: functional;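 also: transfected cells were stimulated with diluted bursicon conditioned medium after compound addition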
[4] = blockade of melanocortin 4 receptor signaling – cell-based, plate reader, cherry pick, counter-screen for LGR2 antagonist project, dose response (AID 743444); assay type: functional;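 also: transfected HEK 293 cells stimulated with alpha-MSH peptide; potency of inhibitors of the alpha-MSH evoked signal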
[5] = viability loss in HEK293 cells – cell-based, plate reader, cherry-picked samples, cytotoxicity control, dose response (AID 743446); assay type: functional
Coagulation factor XII = target: T1, Coagulation factor XII (Homo sapiens, UniProt P00748); assay type: functional;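 also: activated factor XIIa alpha cleaving a fluorogenic AMC peptide substrate; inhibitor potency from loss of enzyme activity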
T1 sequence (P00748 whole entry): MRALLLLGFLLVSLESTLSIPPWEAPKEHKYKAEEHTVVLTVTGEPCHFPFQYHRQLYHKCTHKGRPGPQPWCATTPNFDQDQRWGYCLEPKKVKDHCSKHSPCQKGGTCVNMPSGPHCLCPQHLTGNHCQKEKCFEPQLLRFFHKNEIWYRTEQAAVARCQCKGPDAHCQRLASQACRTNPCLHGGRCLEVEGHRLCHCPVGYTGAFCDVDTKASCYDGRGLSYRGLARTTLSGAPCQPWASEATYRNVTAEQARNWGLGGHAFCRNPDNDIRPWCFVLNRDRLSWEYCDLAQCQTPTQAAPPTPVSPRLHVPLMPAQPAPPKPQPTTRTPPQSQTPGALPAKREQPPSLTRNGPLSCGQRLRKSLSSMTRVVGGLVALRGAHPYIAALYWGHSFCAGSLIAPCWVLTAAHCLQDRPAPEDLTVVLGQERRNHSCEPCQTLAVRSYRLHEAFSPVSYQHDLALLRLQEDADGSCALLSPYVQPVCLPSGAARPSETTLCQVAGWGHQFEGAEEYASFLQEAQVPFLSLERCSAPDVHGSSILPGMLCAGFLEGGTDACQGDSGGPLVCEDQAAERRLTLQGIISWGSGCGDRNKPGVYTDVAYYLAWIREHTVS

Mu-type opioid receptor = Mu-type opioid receptor (Homo sapiens, UniProt P35372); assay type: functional, cell-based;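 also: U2OS cells with beta-arrestin recruitment to OPRM1 by beta-gal complementation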
[6] = target: 5-hydroxytryptamine receptor 2A (Mus musculus, UniProt P35363); assay type: functional, cell-based;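 also: CHO-K1 cells with tagged receptor and beta-arrestin; agonist potency measured as compound-induced activation of the receptor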
[7] = blockers of HIV-1 envelope-mediated cell-cell fusion – cherry-pick, dose response (AID 652057); assay type: functional, cell-based
[8] = blockers of HIV-1 ZM109 envelope-driven cell-cell fusion – HeLa effector, CEM target cells, luciferase, cherry-pick, dose response (AID 652058); assay type: functional, cell-based;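 also: luciferase signal from HIV-1 Env mediated cell-cell fusion of effector and target cells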
[9] = off-target signal loss in HeLa-CEM21 co-culture – HeLa F-luc CTL cells, cherry-picked, counter-screen for HIV-1 Env fusion inhibitor project, dose response (AID 652040); assay type: functional, cell-based;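 also: potency for signal decrease marking cytotoxic or nonspecific inhibition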
[10] = HIV-1 AD8 envelope cell-cell fusion blockers – cherry-pick, dose response (AID 652062); assay type: functional, cell-based;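 also: luciferase signal from cell-cell fusion driven by HIV-1 clade B AD8 Env; potency is for inhibitors of fusion seen as a drop in luminescence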
[11] = reduction of Shn3 3'UTR-driven luciferase in osteoblasts – cell-based, Clone20 osteoblasts, firefly luciferase, cherry-picked, dose response (AID 624132); assay type: functional;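 also: firefly luciferase luminescence from reporter carrying the Shn3 3'UTR in osteoblasts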
[12] = loss of viability in HepG2 cells – cell-based, CellTiter-Glo, cherry-picked, cytotoxicity control for Shn3 inhibitor project, dose response (AID 624134); assay type: functional
[13] = non-specific 3'UTR reporter inhibition in Clone20-Shn3RL – cell-based, Renilla luciferase, cherry-picked, counter-screen for Shn3 inhibitor project, dose response (AID 624133); assay type: functional
Nonstructural protein 1 = Nonstructural protein 1 (Influenza A virus, UniProt Q194T2); assay type: functional, Influenza A virus (A/California/07/2009(H1N1))
[14] = target: T2, Histone-lysine N-methyltransferase NSD2 (Homo sapiens, UniProt O96028); assay type: biochemical
T2 sequence (O96028 whole entry): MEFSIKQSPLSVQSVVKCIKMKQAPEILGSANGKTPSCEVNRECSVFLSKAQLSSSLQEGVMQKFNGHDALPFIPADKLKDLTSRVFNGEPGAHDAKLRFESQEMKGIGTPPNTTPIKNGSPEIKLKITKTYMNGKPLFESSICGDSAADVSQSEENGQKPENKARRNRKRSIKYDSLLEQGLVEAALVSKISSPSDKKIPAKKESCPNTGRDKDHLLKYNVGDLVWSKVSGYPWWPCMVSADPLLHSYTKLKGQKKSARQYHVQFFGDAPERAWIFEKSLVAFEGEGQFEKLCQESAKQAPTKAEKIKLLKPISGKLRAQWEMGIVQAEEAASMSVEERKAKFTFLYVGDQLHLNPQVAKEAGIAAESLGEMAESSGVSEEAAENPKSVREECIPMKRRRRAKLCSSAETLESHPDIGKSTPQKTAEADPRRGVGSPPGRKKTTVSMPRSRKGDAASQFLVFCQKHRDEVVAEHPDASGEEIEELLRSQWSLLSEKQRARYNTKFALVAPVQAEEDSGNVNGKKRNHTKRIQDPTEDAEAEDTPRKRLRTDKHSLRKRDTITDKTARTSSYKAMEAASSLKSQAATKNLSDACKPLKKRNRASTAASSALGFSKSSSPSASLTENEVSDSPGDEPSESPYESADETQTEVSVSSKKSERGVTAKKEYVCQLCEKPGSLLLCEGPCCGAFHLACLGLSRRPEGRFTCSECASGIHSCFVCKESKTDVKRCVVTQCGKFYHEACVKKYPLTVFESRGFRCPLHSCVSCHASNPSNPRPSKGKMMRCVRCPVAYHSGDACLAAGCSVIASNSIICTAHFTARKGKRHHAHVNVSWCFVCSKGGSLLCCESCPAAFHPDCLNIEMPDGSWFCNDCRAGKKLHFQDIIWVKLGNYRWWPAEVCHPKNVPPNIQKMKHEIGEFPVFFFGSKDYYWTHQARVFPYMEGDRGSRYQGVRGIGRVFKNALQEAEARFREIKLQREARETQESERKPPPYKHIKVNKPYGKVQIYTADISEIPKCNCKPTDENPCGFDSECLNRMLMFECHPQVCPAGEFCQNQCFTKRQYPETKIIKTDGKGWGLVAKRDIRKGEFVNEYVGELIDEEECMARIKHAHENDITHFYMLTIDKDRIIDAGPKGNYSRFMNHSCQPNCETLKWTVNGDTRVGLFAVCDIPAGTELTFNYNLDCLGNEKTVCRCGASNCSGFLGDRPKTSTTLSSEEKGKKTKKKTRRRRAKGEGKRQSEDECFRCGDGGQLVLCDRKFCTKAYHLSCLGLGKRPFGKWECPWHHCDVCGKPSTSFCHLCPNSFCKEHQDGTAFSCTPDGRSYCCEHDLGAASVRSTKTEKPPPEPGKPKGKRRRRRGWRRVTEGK

[15] = HGIII-sPLA2 enzyme inhibition potency – biochemical, QFRET, IC50, dose response (AID 743457);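 also: green fluorescence rise as the enzyme cleaves BODIPY PC-A2 in liposomes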
[16] = target: Heat shock protein HSP 90-alpha (Homo sapiens, UniProt P07900); assay type: functional, organism-based
Cytochrome P450 3A4 = Cytochrome P450 3A4 (Homo sapiens, UniProt P08684);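 also: CYP3A4 tested as one member of a cytochrome P450 panel screen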
Cytochrome P450 2C9 = Cytochrome P450 2C9 (Homo sapiens, UniProt P11712)
Paired box protein Pax-8 = Paired box protein Pax-8 (Homo sapiens, UniProt Q06710); assay: PAX8 transcriptional activity inhibition in RMG-I – RMG-I cells, luciferase, cherry-pick, dose response (AID 687027); assay type: functional, cell-based;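 also: luciferase reporter driven by Pax8 target thyroperoxidase promoter measured by SteadyGlo luminescence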
[17] = OVCAR8 cell viability loss – plate reader, dry powder samples, PAX8 project, dose response (AID 743197); assay type: functional, cell-based; conditions: OVCAR-8

5-hydroxytryptamine receptor 2A, sequence (P35363 whole entry, the tested form may be a part): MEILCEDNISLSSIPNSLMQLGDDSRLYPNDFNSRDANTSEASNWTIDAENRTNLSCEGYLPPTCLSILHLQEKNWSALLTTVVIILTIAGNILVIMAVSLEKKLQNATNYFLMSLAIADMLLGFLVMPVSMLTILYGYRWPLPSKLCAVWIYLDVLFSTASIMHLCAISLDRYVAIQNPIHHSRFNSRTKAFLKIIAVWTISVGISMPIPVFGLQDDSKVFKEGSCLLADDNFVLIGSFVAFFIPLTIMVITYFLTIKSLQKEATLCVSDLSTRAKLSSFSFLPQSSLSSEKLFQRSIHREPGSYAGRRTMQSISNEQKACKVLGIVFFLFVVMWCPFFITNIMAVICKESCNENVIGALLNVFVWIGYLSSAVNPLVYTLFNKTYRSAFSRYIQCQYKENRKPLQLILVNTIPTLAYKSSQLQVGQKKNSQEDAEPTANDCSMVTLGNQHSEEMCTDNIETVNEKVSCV
Mu-type opioid receptor, sequence (P35372 whole entry): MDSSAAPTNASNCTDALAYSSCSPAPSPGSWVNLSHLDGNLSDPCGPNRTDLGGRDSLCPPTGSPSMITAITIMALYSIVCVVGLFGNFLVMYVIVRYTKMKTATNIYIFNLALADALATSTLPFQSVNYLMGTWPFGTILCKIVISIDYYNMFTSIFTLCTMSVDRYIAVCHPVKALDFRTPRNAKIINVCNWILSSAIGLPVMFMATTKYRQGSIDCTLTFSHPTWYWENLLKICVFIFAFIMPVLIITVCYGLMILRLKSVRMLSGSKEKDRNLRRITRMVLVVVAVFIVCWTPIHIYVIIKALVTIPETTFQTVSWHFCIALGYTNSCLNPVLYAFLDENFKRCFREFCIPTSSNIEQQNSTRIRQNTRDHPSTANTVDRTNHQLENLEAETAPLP
Nonstructural protein 1, sequence (Q194T2 whole entry): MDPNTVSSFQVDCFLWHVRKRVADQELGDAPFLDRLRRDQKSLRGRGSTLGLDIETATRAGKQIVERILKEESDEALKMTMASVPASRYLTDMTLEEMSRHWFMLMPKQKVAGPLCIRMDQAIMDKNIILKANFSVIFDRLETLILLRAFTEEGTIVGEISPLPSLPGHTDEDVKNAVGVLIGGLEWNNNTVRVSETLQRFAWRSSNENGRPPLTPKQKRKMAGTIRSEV
Cytochrome P450 2C9, sequence (P11712 whole entry): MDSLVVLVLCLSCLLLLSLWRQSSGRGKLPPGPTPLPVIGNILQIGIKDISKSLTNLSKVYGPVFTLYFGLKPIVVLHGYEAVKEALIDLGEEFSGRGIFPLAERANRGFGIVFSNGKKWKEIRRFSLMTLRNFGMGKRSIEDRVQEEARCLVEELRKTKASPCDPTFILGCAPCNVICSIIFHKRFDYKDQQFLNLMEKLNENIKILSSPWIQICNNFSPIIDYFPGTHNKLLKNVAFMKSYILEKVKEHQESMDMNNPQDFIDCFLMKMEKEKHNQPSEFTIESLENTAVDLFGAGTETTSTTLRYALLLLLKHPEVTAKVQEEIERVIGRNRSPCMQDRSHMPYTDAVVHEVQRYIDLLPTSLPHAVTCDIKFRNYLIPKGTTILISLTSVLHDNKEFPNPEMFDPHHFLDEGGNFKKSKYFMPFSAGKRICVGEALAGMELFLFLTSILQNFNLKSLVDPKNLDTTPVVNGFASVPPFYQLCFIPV
Paired box protein Pax-8, sequence (Q06710 whole entry): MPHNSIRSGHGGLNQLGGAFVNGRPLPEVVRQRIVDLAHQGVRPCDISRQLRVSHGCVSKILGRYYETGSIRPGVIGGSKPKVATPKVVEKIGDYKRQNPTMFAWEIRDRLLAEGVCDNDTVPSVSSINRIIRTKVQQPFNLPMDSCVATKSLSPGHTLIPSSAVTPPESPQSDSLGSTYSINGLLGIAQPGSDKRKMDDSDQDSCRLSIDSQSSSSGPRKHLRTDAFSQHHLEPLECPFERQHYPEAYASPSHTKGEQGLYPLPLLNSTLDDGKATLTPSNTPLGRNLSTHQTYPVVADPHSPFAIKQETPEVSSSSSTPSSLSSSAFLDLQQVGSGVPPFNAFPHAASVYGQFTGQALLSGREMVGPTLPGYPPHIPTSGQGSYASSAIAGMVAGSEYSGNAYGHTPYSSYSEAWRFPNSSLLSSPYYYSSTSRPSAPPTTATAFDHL
Cytochrome P450 3A4, sequence (P08684 whole entry): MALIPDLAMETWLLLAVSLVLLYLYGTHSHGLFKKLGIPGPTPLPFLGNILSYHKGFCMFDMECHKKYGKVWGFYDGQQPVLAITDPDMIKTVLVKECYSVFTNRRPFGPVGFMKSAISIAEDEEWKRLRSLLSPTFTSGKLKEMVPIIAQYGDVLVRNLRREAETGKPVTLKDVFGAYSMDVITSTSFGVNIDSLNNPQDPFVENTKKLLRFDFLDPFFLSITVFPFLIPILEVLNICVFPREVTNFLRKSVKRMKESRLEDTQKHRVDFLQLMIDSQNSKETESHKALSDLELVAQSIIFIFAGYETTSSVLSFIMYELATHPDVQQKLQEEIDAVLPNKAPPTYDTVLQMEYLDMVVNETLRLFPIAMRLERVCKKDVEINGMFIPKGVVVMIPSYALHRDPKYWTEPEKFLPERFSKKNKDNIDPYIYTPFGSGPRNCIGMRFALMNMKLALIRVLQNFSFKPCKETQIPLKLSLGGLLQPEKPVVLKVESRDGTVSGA

## Oc1nc2ccccc2n1C1CCN(C(CCc2ccccc2)c2nnnn2C2CCCC2)CC1 (stereo unspecified)
[1]
  AC50: 13.3 µM (active)
[2]
  AC50: 22.4 µM (active)
[3]
  AC50: 20.3 µM (active)
[4]
  AC50: 18.4 µM (active)
[5]
  AC50: 14.1 µM (active)

## CC(=O)N1CCC(N2CCN(c3ccccc3F)CC2)CC1
Coagulation factor XII
  IC50: > 50 µM (inactive)
Mu-type opioid receptor
  EC50: 92.4 µM (inactive)
[6]
  EC50: 1.16 µM (active)

## O=C(c1ccco1)N1CCN(Cc2ccccc2Br)CC1
Mu-type opioid receptor
  EC50: 92.5 µM (inactive)
[6]
  EC50: 5.91 µM (active)

## C[C@@]12C(=O)N(Cc3ccccc3)CC(=O)N1[C@H]1c3ccccc3OC[C@@H]1[C@@H]2c1ccccc1
[7]
  AC50: 1.65 µM (active)
[8]
  AC50: 1.68 µM (active)
[9]
  AC50: 2.27 µM (active)
[10]
  AC50: 6.27 µM (active)

## O=C(OCCC12CC3CC(CC(C3)C1)C2)c1ccc(NCc2cc(O)ccc2O)cc1
[11]
  AC50: 1.82 µM (active)
[12]
  AC50: 21.7 µM (active)
[13]
  AC50: 5.97 µM (active)

## CN(C1=C(N2CCOCC2)C(=O)c2ccccc2C1=O)c1ccccc1
Nonstructural protein 1
  IC50: 11.9 µM (active)
[14]
  AC50: 4.86 µM (active)
[15]
  IC50: > 122 µM (inactive)

## O=C1C2C3C=CC(CNS(=O)(=O)c4ccccc4[N+](=O)[O-])(O3)C2C(=O)N1c1ccccc1 (stereo unspecified)
[16]
  AC50: 25.5 µM (active)

## Cc1cc(C(=O)Nc2ccc(N3CCOCC3)cc2)c2ccccc2n1
Coagulation factor XII
  IC50: > 50 µM (inactive)
Cytochrome P450 3A4
  AC50: 15.8 µM (inconclusive)
Cytochrome P450 2C9
  AC50: inconclusive

## C[C@@H]1CCCCO[C@H](CN(C)Cc2ccc(C(F)(F)F)cc2)[C@H](C)CN([C@H](C)CO)C(=O)c2cc(NS(=O)(=O)c3ccccc3)ccc2O1
Paired box protein Pax-8
  AC50: 6.88 µM (active)
[17]
  AC50: > 70 µM (inactive)
